From ChEMBL document CHEMBL5113478, “7-Azaindole, 2,7-diazaindole, and 1H-pyrazole as core structures for novel anticancer agents with potential chemosensitizing properties” (Eur J Med Chem, 2022)
Active and inactive are the calls of the source.

Tests used:
HT-29 [1] = assay: Antiproliferative activity against human HT-29 cells assessed as […] cell proliferation at 10 uM incubated for 48 hrs in presence of 15 uM of CDDP by WST-1 assay relative to control; format: functional
PANC-1 [2] = assay: Antiproliferative activity against human PANC-1 cells assessed as […] cell proliferation at 10 uM incubated for 48 hrs in presence of 15 uM of CDDP by WST-1 assay relative to control; format: functional
1321N1 [3] = assay: Chemo-sensitizing activity against human 1321N1 cells at 15 uM incubated for 48 hrs in presence of TMZ by MTT assay; format: functional, cell-based
A549 [4] = assay: Antiproliferative activity against human A549 cells assessed as […] cell proliferation at 10 uM incubated for 48 hrs by WST-1 assay relative to control; format: functional
SAOS-2 [5] = assay: Antiproliferative activity against human SAOS-2 cells assessed as […] cell proliferation at 10 uM incubated for 48 hrs in presence of 15 uM of CDDP by WST-1 assay relative to control; format: functional
A2780 [6] = assay: Antiproliferative activity against human A2780 cells assessed as […] cell proliferation at 10 uM incubated for 48 hrs by WST-1 assay relative to control; format: functional
SAOS-2 [7] = assay: Antiproliferative activity against human SAOS-2 cells assessed as […] cell proliferation at 10 uM incubated for 48 hrs by WST-1 assay relative to control; format: functional
MCF7 [8] = assay: Antiproliferative activity against human MCF7 cells assessed as […] cell proliferation at 10 uM incubated for 48 hrs by WST-1 assay relative to control; format: functional
A2780 [9] = assay: Antiproliferative activity against human A2780 cells assessed as […] cell proliferation at 10 uM incubated for 48 hrs in presence of 2 uM of CDDP by WST-1 assay relative to control; format: functional
Jurkat [10] = assay: Antiproliferative activity against human Jurkat cells assessed as […] cell proliferation at 10 uM incubated for 48 hrs by WST-1 assay relative to control; format: functional
MOLT-4 [11] = assay: Antiproliferative activity against human MOLT-4 cells assessed as […] cell proliferation at 10 uM incubated for 48 hrs by WST-1 assay relative to control; format: functional
A549 [12] = assay: Antiproliferative activity against human A549 cells assessed as […] cell proliferation at 10 uM incubated for 48 hrs in presence of 15 uM of CDDP by WST-1 assay relative to control; format: functional
MOLT-4 [13] = assay: Antiproliferative activity against human MOLT-4 cells assessed as […] cell proliferation at 10 uM incubated for 48 hrs in presence of 2 uM of CDDP by WST-1 assay relative to control; format: functional
GBM = assay: Cytotoxicity against patient-derived human GBM cells assessed as reduction in cell viability at 15 uM incubated for 48 hrs by MTT assay; format: functional
HT-29 [14] = assay: Antiproliferative activity against human HT-29 cells assessed as […] cell proliferation at 10 uM incubated for 48 hrs by WST-1 assay relative to control; format: functional
Jurkat [15] = assay: Antiproliferative activity against human Jurkat cells assessed as […] cell proliferation at 10 uM incubated for 48 hrs in presence of 2 uM of CDDP by WST-1 assay relative to control; format: functional
HeLa [16] = assay: Antiproliferative activity against human HeLa cells assessed as […] cell proliferation at 10 uM incubated for 48 hrs by WST-1 assay relative to control; format: functional
MCF7 [17] = assay: Antiproliferative activity against human MCF7 cells assessed as […] cell proliferation at 10 uM incubated for 48 hrs in presence of 10 uM of CDDP by WST-1 assay relative to control; format: functional
PANC-1 [18] = assay: Antiproliferative activity against human PANC-1 cells assessed as […] cell proliferation at 10 uM incubated for 48 hrs by WST-1 assay relative to control; format: functional
1321N1 [19] = assay: Cytotoxicity against human 1321N1 cells assessed as reduction in cell viability at 15 uM incubated for 48 hrs by MTT assay; format: functional, cell-based
HeLa [20] = assay: Antiproliferative activity against human HeLa cells assessed as […] cell proliferation at 10 uM incubated for 48 hrs in presence of 15 uM of CDDP by WST-1 assay relative to control; format: functional

CC(C)S(=O)(=O)c1ccc(-c2cc(C(=O)N3CCc4ccccc4C3)n[nH]2)cc1
50%: Activity (GBM)
57%: Activity (HT-29 [1]) | Activity (PANC-1 [2]) | Activity (SAOS-2 [5]) | Activity (A2780 [9]) | Activity (A549 [12]) | Activity (MOLT-4 [13]) | Activity (Jurkat [15]) | Activity (MCF7 [17]) | Activity (HeLa [20])
active: Activity (1321N1 [3]) | Activity (1321N1 [19])
82%: Activity (A549 [4]) | Activity (A2780 [6]) | Activity (SAOS-2 [7]) | Activity (MCF7 [8]) | Activity (Jurkat [10]) | Activity (MOLT-4 [11]) | Cell viability relative to control (HT-29 [14]) | Activity (HeLa [16]) | Activity (PANC-1 [18])

CCN(CC)c1ccc(CNC(=O)c2c[nH]c3ncc(-c4ccc(S(=O)(=O)C(C)C)cc4)cc23)cc1
58%: Activity (HT-29 [1]) | Activity (PANC-1 [2]) | Activity (SAOS-2 [5]) | Activity (A2780 [9]) | Activity (A549 [12]) | Activity (MOLT-4 [13]) | Activity (Jurkat [15]) | Activity (MCF7 [17]) | Activity (HeLa [20])
64%: Activity (A549 [4]) | Activity (A2780 [6]) | Activity (SAOS-2 [7]) | Activity (MCF7 [8]) | Activity (Jurkat [10]) | Activity (MOLT-4 [11]) | Cell viability relative to control (HT-29 [14]) | Activity (HeLa [16]) | Activity (PANC-1 [18])
active: Activity (GBM) | Activity (1321N1 [19])

CC(C)S(=O)(=O)c1ccc(-c2cnc3[nH]c(C(=O)N4CCc5ccccc5C4)cc3c2)cc1
50%: Activity (GBM)
57%: Activity (HT-29 [1]) | Activity (PANC-1 [2]) | Activity (SAOS-2 [5]) | Activity (A2780 [9]) | Activity (A549 [12]) | Activity (MOLT-4 [13]) | Activity (Jurkat [15]) | Activity (MCF7 [17]) | Activity (HeLa [20])
active: Activity (1321N1 [3]) | Activity (1321N1 [19])
71%: Activity (A549 [4]) | Activity (A2780 [6]) | Activity (SAOS-2 [7]) | Activity (MCF7 [8]) | Activity (Jurkat [10]) | Activity (MOLT-4 [11]) | Cell viability relative to control (HT-29 [14]) | Activity (HeLa [16]) | Activity (PANC-1 [18])

CC(C)S(=O)(=O)c1ccc(-c2cnc3[nH]cc(CN4CCc5ccccc5C4)c3c2)cc1
101%: Activity (A549 [4]) | Activity (A2780 [6]) | Activity (SAOS-2 [7]) | Activity (MCF7 [8]) | Activity (Jurkat [10]) | Activity (MOLT-4 [11]) | Cell viability relative to control (HT-29 [14]) | Activity (HeLa [16]) | Activity (PANC-1 [18])
62%: Activity (HT-29 [1]) | Activity (PANC-1 [2]) | Activity (SAOS-2 [5]) | Activity (A2780 [9]) | Activity (A549 [12]) | Activity (MOLT-4 [13]) | Activity (Jurkat [15]) | Activity (MCF7 [17]) | Activity (HeLa [20])

CS(=O)(=O)c1ccc(-c2cnc3[nH]nc(C(=O)N4CCC(c5ccccc5)CC4)c3c2)cc1
92%: Activity (A549 [4]) | Activity (A2780 [6]) | Activity (SAOS-2 [7]) | Activity (MCF7 [8]) | Activity (Jurkat [10]) | Activity (MOLT-4 [11]) | Cell viability relative to control (HT-29 [14]) | Activity (HeLa [16]) | Activity (PANC-1 [18])
71%: Activity (HT-29 [1]) | Activity (PANC-1 [2]) | Activity (SAOS-2 [5]) | Activity (A2780 [9]) | Activity (A549 [12]) | Activity (MOLT-4 [13]) | Activity (Jurkat [15]) | Activity (MCF7 [17]) | Activity (HeLa [20])
